In patent publication US20250052744A1, “Dyes and Uses Thereof” (The University of Liverpool, priority 2021, published 2025):

Experiments:
Test in all cases: Qualitative dye staining on agarose pads (EVOS M7000)
Assay type in all cases: cell-based
Design in all cases: key to Relative fluorescent intensity: Very high: If the cells looked twice as big in the fluorescent channel, it was marked as having “very high” relative fluorescent intensity; High: if the cells looked bigger in the fluorescent channel, it was marked as having “high” relative fluorescent intensity; Medium: If the cells looked almost the same size in the fluorescent channel and the bright field, it was marked as having “medium” relative fluorescent intensity; Low: If the cells looked smaller in the fluorescent channel as compared to the brightfield but still the whole cell was visible, it was marked as having “low” relative fluorescent intensity; Negligible: If only a few traces of a cell was visible in the fluorescent channel, it was marked as having “negligible” relative fluorescent intensity
Conditions in all cases: DiSC3(5) 3 μM, SYBR Green I 10×, SYTO 13 3 μM, FM4-64 15 μM
Enterococcus faecalis = test system: Enterococcus faecalis
Protocol: (§1) An overnight culture was prepared by inoculating a bacterial colony in approximately 5 ml of Urine and incubating the culture in an orbital shaker at 37° C.
(§2) The following media and materials were utilised: Cation-adjusted Mueller Hinton broth (MHB); Phosphate Buffered Saline (PBS); Membrane staining dye—FM4-64 (1.5 mM); Live cell staining dye—DiSC3(5) (1 mM); DNA staining dye—SYBR Green (1000×); DNA staining dye—SYTO 13 (0.5 mM); Ultrapure Agarose; Parafilm; Glass slides and coverslips; Scalpel; and EVOS M7000 fluorescent microscope.
(§3) A pre-cut parafilm or a coverslip was used as a guide and 22 mm×22 mm squares cut from parafilm. A square was cut out of the centre of the parafilm (approximately 10 mm×10 mm). The centre of the cut-out was discarded. Two parafilm gaskets were placed onto a cleaned glass slide. The glass slide was then placed on a dry bath set to 56° C. so that the parafilm adhered to the glass slide. The glass slide was then kept on the dry bath. Using a microwave, ultrapure agarose was dissolved in PBS at a concentration of 1.2%. The agarose solution was kept on a dry bath set at 56° C. 60 μl of the agarose solution was pipetted in the centre of the parafilm gaskets. A coverslip was then placed over the gaskets without applying pressure on the coverslip. The slide was then placed on a cool surface and left to solidify for 1-2 minutes. The coverslips were then gently lifted off the agarose pads.
(§4) In a first Eppendorf, 15 μl of FM4-64 and 6 μl of SYTO 13 was added and in a second Eppendorf 10 μl of SYBR Green and 3 μl of DiSC3(5) was added. Depending on the bacterial growth in urine, an appropriate concentration of the bacterial culture was placed in the two Eppendorfs (final bacterial concentration 10^6 CFU/ml). MHB was added so as to achieve a final volume of 1 ml. Final concentrations of the dyes in the sample was as follows: DiSC3(5): 3 μM; SYBR Green I: 10× (originally supplied as 10,000×); SYTO 13: 3 μM; and FM4-64: 15 μM
(§5) 4 μl of the contents of each Eppendorf were deposited on one agarose pad and the cells distributed across the agar surface by tilting the slide. The slide was left to dry for approximately 1 minute. A coverslip was then placed on top of the agarose pad. The slide was placed inside the microscope and incubated at 37° C. for 10 minutes. Using different light filters for each dye, an image of each pad at 40× magnification on an EVOS M7000 fluorescent microscope was captured. Eight images for each agarose pad was recorded (i.e. 8 each for brightfield and 2 fluorescent channels). For each agarose pad, 24 images were recorded. This corresponded to 48 images in total for each bacterial strain (2 agarose pads per strain). Table A below was used to take the images using the correct fluorescent channel and intensity (for imagining on any other instrument, the LED intensity will need to be normalised against the EVOS M7000).
(§6) To qualitatively calculate the relative fluorescent intensities, cell size was compared between brightfield and the fluorescent channel for a given fluorescent dye. If the cells are very fluorescent, they will appear bigger in the fluorescent channel as compared to the bright field. For our qualitative measurements, if the cells looked bigger in the fluorescent channel, it was marked as having “high” relative fluorescent intensity. If the cells looked twice as big in the fluorescent channel, it was marked as having “very high” relative fluorescent intensity. If the cells looked almost the same size in the fluorescent channel and the bright field, it was marked as having “medium” relative fluorescent intensity. If the cells looked smaller in the fluorescent channel as compared to the brightfield but still the whole cell was visible, it was marked as having “low” relative fluorescent intensity. If only a few traces of a cell was visible in the fluorescent channel, it was marked as having “negligible” relative fluorescent intensity.

Klebsiella pneumoniae = test system: Klebsiella pneumoniae
Protocol: as §1, §2, §3, §4, §5, §6

[1] = test system: Staphylococcus saprophyticus
Protocol: as §1, §2, §3, §4, §5, §6

[2] = Table 7 commercial strain Enterococcus faecalis NCTCT 12697
[3] = Table 8 sample Enterococcus faecalis (001)
[4] = Table 8 sample Enterococcus faecalis (002)
[5] = Table 8 sample Enterococcus faecalis (003)
[6] = Table 7 commercial strain Klebsiella pneumoniae NCTC 9633
[7] = Table 7 commercial strain Klebsiella pneumoniae NCTC 14335
[8] = Table 8 sample Klebsiella pneumoniae (094)
[9] = Table 8 sample Klebsiella pneumoniae (095)
[10] = Table 6 thresholds, Staphylococcus saprophyticus
[11] = Table 7 commercial strain S. saprophyticus NCTC 13634
[12] = Table 8 sample Staphylococcus saprophyticus (047)
[13] = Table 8 sample Staphylococcus saprophyticus (048)
[14] = Table 8 sample Staphylococcus saprophyticus (049)

Compound | Percentage of cells stained (Enterococcus faecalis; [2]) | Relative fluorescent intensity (Enterococcus faecalis; [2]) | Percentage of cells stained (Enterococcus faecalis; [3]) | Relative fluorescent intensity (Enterococcus faecalis; [3]) | Percentage of cells stained (Enterococcus faecalis; [4]) | Relative fluorescent intensity (Enterococcus faecalis; [4]) | Percentage of cells stained (Enterococcus faecalis; [5]) | Relative fluorescent intensity (Enterococcus faecalis; [5]) | Percentage of cells stained (Klebsiella pneumoniae; [6]) | Relative fluorescent intensity (Klebsiella pneumoniae; [6]) | Percentage of cells stained (Klebsiella pneumoniae; [7]) | Relative fluorescent intensity (Klebsiella pneumoniae; [7]) | Percentage of cells stained (Klebsiella pneumoniae; [8]) | Relative fluorescent intensity (Klebsiella pneumoniae; [8]) | Percentage of cells stained (Klebsiella pneumoniae; [9]) | Relative fluorescent intensity (Klebsiella pneumoniae; [9]) | Percentage of cells stained [1, 10] | Relative fluorescent intensity [1, 10] | Percentage of cells stained [1, 11] | Relative fluorescent intensity [1, 11] | further results
CCCN1C(=CC=CC=Cc2sc3ccccc3[n+]2CCC)Sc2ccccc21.[I-] [DiSC3(5), 3,3′-Dipropylthiadicarbocyanine Iodide] | Half | Low | Half | Low | Half | Low | Half | Low | Half | Low | Almost all | Low | Half | Low | Almost all | Low | Almost all | high and High | Almost all | High | Percentage of cells stained [1, 12]: Almost all; Relative fluorescent intensity [1, 12]: High; Percentage of cells stained [1, 13]: Almost all; Relative fluorescent intensity [1, 13]: High; Percentage of cells stained [1, 14]: Almost all; Relative fluorescent intensity [1, 14]: High
CCN(CC)c1ccc(C=CC=CC=Cc2cc[n+](CCC[N+](CC)(CC)CC)cc2)cc1.[Br-].[Br-] [FM 4-64, N-(3-Triethylammoniumpropyl)-4-(6-(4-(Diethylamino) Phenyl) Hexatrienyl) Pyridinium Dibromide] | Almost all | Medium | Almost all | Medium | Almost all | Medium | Almost all | Medium | Few | Low | Half | Low | Few | Low | Few | Low | Almost all | High | Almost all | High | Percentage of cells stained [1, 12]: Almost all; Relative fluorescent intensity [1, 12]: High; Percentage of cells stained [1, 13]: Almost all; Relative fluorescent intensity [1, 13]: High; Percentage of cells stained [1, 14]: Almost all; Relative fluorescent intensity [1, 14]: High
CCCN(CCCN(C)C)c1cc(/C=C2/Sc3ccccc3N2C)c2ccccc2[n+]1-c1ccccc1 [SYBR Green I, N′,N′-dimethyl-N-[4-[(E)-(3-methyl-1,3-benzothiazol-2-ylidene)methyl]-1-phenylquinolin-1-ium-2-yl]-N-propylpropane-1,3-diamine] | Almost all | Medium | Almost all | Medium | Almost all | Medium | Almost all | Medium | Half | Low | Almost all | Low | Half | Low | Almost all | Low | Almost all | High | Almost all | High | Percentage of cells stained [1, 12]: Almost all; Relative fluorescent intensity [1, 12]: High; Percentage of cells stained [1, 13]: Almost all; Relative fluorescent intensity [1, 13]: High; Percentage of cells stained [1, 14]: Almost all; Relative fluorescent intensity [1, 14]: High
